Structures can show the parent of a compound that is named as a salt. Values belong to the molecule of their own block, whether it stands above or below them.
Key:
[1] = test system: type II collagen promoter (COL2A1-Gaussia luciferase) in primary human chondrocytes; test: HuCol2gLuc 3D aggregate type II collagen promoter-driven Gaussia luciferase assay; assay type: cell-based; settings: for stimulation of type II collagen production in the screen of natural products: NCI Natural Products Set V, 5 μM continuously, 22-day assay
Experimental: Chondrogenic Culture. Human COL2A1-GLuc or uninfected cells were thawed and seeded in growth media on synoviocyte matrix at 6,000 cells/cm^2 and expanded to 90-100% confluence in physioxia. Cells were trypsinized (0.25% Trypsin/EDTA; Corning), resuspended in growth media (for monolayer culture) or chondrogenic differentiation media for 3D aggregates (93.24% High-Glucose DMEM (Gibco), 1% dexamethasone 10^−5M (Sigma), 1% ITS+premix (Becton-Dickinson), 1% Glutamax (Hyclone), 1% 100 mM Sodium Pyruvate (Hyclone), 1% MEM Non-Essential Amino Acids (Hyclone), 0.26% L-Ascorbic Acid Phosphate 50 mM (Wako), 0.5% Fungizone (Life Technologies) with TGF-β1 (Peprotech) and seeded as described below.
Generation and Maintenance of 3D aggregates. To generate 3D aggregates, cells were seeded at 50,000 cells per well (in 96-well cell repellent u-bottom plates, GreinerBio) and then centrifuged at 500 RCF, 5 min. For the initial drug screen, aggregates were cultured in basal chondrogenic media (1 ng/ml TGF-β1) alone, with DMSO (vehicle control) or 5 μM of the drug compounds from the NCI library (Natural Products V, NCI). For candidate validation and subsequent studies aggregates were cultured in basal chondrogenic media (10 ng/ml TGF-β1) alone, with DMSO (vehicle control) or compounds as indicated in the results. Aggregates were cultured for three weeks in physioxic conditions, culture medium was sampled and replaced three times a week with fresh medium. An OT-2 (Opentrons) python coded robotic pipette, programmed at an aspiration height of 2 mm from the bottom of the wells and aspiration rate of 40 μl/s was utilized for addition of compound, cell feeding, and media sampling for luciferase assay. After three weeks, cell aggregates were either fixed in neutral buffered formalin for histology or medium removed and aggregates frozen dry (−20° C.) for biochemical assays.
(§1) Luciferase Assay. Conditioned culture medium sampled from aggregates in 96-wells (20 μL/well) was assessed using a stabilized Gaussia Luciferase buffer mix (50 µl/well) for a final concentration of 0.09 M MES, 0.15M Ascorbic Acid, and 4.2 μM Coelenterazine in white 96-well plates. Luminescence was measured in a plate reader (25° C., relative light units (RLU), En Vision plate reader). An OT-2 (Opentrons) python coded robotic pipette was utilized for luciferase buffer addition to white plates (GreinerBio).

[2] = test system: type II collagen promoter (COL2A1-GLuc) in primary rabbit chondrocytes; test: COL2A1-GLuc primary rabbit chondrocyte 3D aggregate luciferase assay; assay type: cell-based; settings: day 21; for luminescence: basal media alone ~40,000 RLU; for luminescence with a single vitamin or mineral vs basal media alone: one factor at a time
Experimental: Chondrogenic Culture. Rabbit COL2A1-GLuc were thawed and seeded in growth media at 6000 cells/cm^2 and expanded to 90-100% confluence in physioxia. Cells were trypsinized (0.25% Trypsin/EDTA; Corning), resuspended in basal chondrogenic media (93.24% High-Glucose DMEM (Gibco), 1% dexamethasone 10^−5 M (Sigma), 1% ITS+premix (Becton-Dickinson), 1% Glutamax (Hyclone), 1% 100 mM Sodium Pyruvate (Hyclone), 1% MEM Non-Essential Amino Acids (Hyclone), 0.26% L-Ascorbic Acid Phosphate 50 mM (Wako), 0.5% Fungizone (Life Technologies) with TGF-β1 (Peprotech) and seeded as described below.
Generation and Maintenance of 3D Aggregates. To generate 3D aggregates, cells were seeded at 50,000 cells per well (in 96-well cell repellent u-bottom plates, GreinerBio) and then centrifuged at 500 RCF, 5 min. For the TGF-β1 dose response studies, that serve as positive controls for the reporter cells, aggregates were cultured in basal chondrogenic media and different concentrations of TGF-β1 ranging from 0-10 ng/ml. For the DoE studies, aggregates were cultured in basal chondrogenic media (1 ng/ml TGF-β1) as a control or basal media supplemented with vitamins and minerals (Table 3 and Table 5). Plates were cultured for three weeks in physioxia, media was sampled and replaced three times a week with respective medium. An OT-2 (Opentrons) python coded robotic pipette, programmed at an aspiration height of 2 mm from the bottom of the wells and aspiration rate of 40 μl/s was utilized for media preparation, cell feeding, and media sampling for luciferase assay. After three weeks, cell aggregates were either fixed in neutral buffered formalin for histology or medium removed and aggregates frozen dry (−20° C.) for biochemical assays.
as §1, with “Cell” for “Conditioned”, “the seeded” for “aggregates in”, “at” for “mix (50 µl/well) for”, “units,” for “units (RLU),”

[3] = test system: HuCol2gLuc aggregates; test: Biochemical assays (DNA, GAG, total collagen) on HuCol2gLuc aggregates; assay type: cell-based, human
Experimental: Biochemical Assays. Aggregates frozen at day 22, were thawed with PBS, and digested with Papain (25 μg/ml, Sigma, P4762, in 2 mM cysteine; 50 mM sodium phosphate; 2 mM EDTA at a pH 6.5, 100 μl) at 65° C. overnight. Plates were sealed with a qPCR adhesive sealing film (USA Scientific), a silicone sheet, and steel plates clamped to the plate to prevent evaporation during digestion. Half of the digest (50 μl) was transferred to another plate and frozen for hydroxyproline assessment. In the remaining digest, papain was inactivated with 0.1M sodium hydroxide (NaOH, 50 μl) followed by NaOH neutralization (100 mM Na2HPO4, 0.1 N HCL, pH 1.82, 50 μl). To quantitate DNA content, samples of the neutralized digest (20 μl) were combined with buffered Hoechst dye (#33258, 667 ng/ml, phosphate buffer pH 8, 100 μl) and fluorescence measured at an excitation of 365 nm and emission of 460 nm. For GAG assessment, 1,9-Dimethyl-methylene blue solution (195 μl) was added to neutralized digests (5 μl) and absorbance measured at 595 nm and 525 nm. Readings were corrected by subtracting 595 nm reading from 525 nm. Micrograms of DNA and GAG were calculated using a Calf thymus DNA standard (Sigma) or Chondroitin Sulfate standard (Seikagaku Corp.), respectively.
For hydroxyproline (HP) quantification, the frozen digests (50 μl) were thawed at room temperature and incubated overnight at 105° C. with 6M hydrochloric acid (200 μl). Plates were sealed to prevent evaporation. Samples were then dried at 70° C. overnight with a hydroxyproline standard (Sigma). Copper sulfate (0.15 M, 10 μl) and NaOH (2.5 M, 10 μl) were added to each well and incubated at 50° C. for 5 minutes, followed by hydrogen peroxide (6%, 10 μl) for 10 minutes. Sulfuric acid (1.5 M, 40 μl) and Ehrlich's reagent (20 μl) were added and samples incubated at 70° C. for 15 minutes. Absorbance was measured at 505 nm. Micrograms of hydroxyproline were calculated using the standard. Total collagen was calculated by the following formula (μg of HP×7.6=μg Total Collagen).

[4] = test system: rat knee; settings: cited from earlier work
[5] = validation, donor 2, 10 ng/ml TGF-β1

stimulation of type II collagen production in the screen of natural products [1]: stimulate type II collagen
Molecule: 6-Hydroxy-2-methoxyaporphine

Molecule: COc1cc2c3c(c1O)-c1cc(O)ccc1CC3N(C)CC2 (stereo not drawn) [1,10-Dihydroxy-2-methoxyaporphine]
stimulation of type II collagen production in the screen of natural products [1]: stimulate type II collagen

stimulation of type II collagen production in the screen of natural products [1]: stimulate type II collagen
Molecule: Nc1ncnc2c1ncn2C1C=C(CO)C(O)C1O (stereo not drawn) [5-(6-Aminopurin-9-yl)-3-(hydroxymethyl)cyclopent-3-ene-1,2-diol]

Molecule: COc1cc2c3c(c1O)-c1cc(O)ccc1C[C@@H]3N(C)CC2 [(-)-Apoglaziovine]
stimulation of type II collagen production in the screen of natural products [1]: stimulate type II collagen

cumulative luminescence vs untreated controls ([1]; donor 2, 10 μM and 25 μM): significant increase in luminescence
luminescence vs untreated control ([1]; donor 2, 10 μM and 25 μM, from day 8 to day 22): increase in luminescence
Molecule: c1ccc(N2CCN(Cc3nc4ccccc4[nH]3)CC2)nc1 [ABT 724, reference compound]
luminescence vs untreated control ([1]; donor 2, 0.1 μM or 1 μM): no effect

stimulation of type II collagen production in the screen of natural products [1]: stimulate type II collagen
Molecule: Nc1nc(=O)c2c([nH]1)NCC(CNc1ccc(C(=O)N[C@@H](CCC(=O)[O-])C(=O)[O-])cc1)N2C=O.[Ca+2] (stereo partly drawn) [Calcium folinate, reference compound]

Molecule: [Cu] [Copper]
luminescence [2]: ~40,000 RLU

stimulation of type II collagen production in the screen of natural products ([1]; listed as 204): stimulatory effects
stimulation of type II collagen production in the screen of natural products ([1]; listed as Deserpidine): stimulate type II collagen
day 22 luminescence normalized to DMSO vehicle control ([1]; screen, 5 μM, 1 ng/ml TGF-β1): significant increase in luminescence
cumulative luminescence ([1]; validation, donor 1): no significant increase
luminescence over 22 days vs untreated control ([1]; validation, donor 1, 10 ng/ml TGF-β1): increase in luminescence
luminescence over 22 days vs untreated control [1, 5]: not donor 2
Molecule: COC(=O)[C@H]1[C@H]2C[C@@H]3c4[nH]c5ccccc5c4CCN3C[C@H]2C[C@@H](OC(=O)c2cc(OC)c(OC)c(OC)c2)[C@@H]1OC [Drug 204, Deserpidine, reference compound]
trend of luminescence over 22 days normalized to DMSO ([1]; screen, 5 μM, 1 ng/ml TGF-β1): initial decrease in expression with continued increase in luminescence after day 8
glycosaminoglycan (GAG) content ([3]; day 22, donor 1): no effect on GAG
total collagen ([3]; day 22, donor 1): no significant increase in total collagen
DNA content ([3]; day 22, donor 2, vs untreated): significant decrease in DNA content
glycosaminoglycan (GAG) content ([3]; day 22, donor 2, untreated 15 μg): 10 µg
total collagen ([3]; day 22, donor 2, untreated ~14 μg): no significant increase in total collagen

stimulation of type II collagen production in the screen of natural products [1]: stimulate type II collagen
Molecule: CC(C)=CC(=O)O[C@H]1[C@H]2[C@H](OC(=O)[C@H]2C)[C@H](O)[C@@H](C)[C@@H]2C=CC(=O)[C@]21C [Fastigilin B]

cumulative luminescence vs untreated controls ([1]; donor 2, 12.5 μM and 25 μM): significant increase in luminescence
luminescence vs untreated controls ([1]; donor 2, 12.5 μM and 25 μM): increased luminescence
Molecule: Cl.Cl.Fc1ccc(N2CCN(CCC3OCCc4ccccc43)CC2)cc1 (stereo not drawn) [PNU 96415E, reference compound]

Molecule: C=C1C(=O)OC2C1CCC(C)C1(O)C=CC(=O)C21C (stereo not drawn) [Parthenicin]
stimulation of type II collagen production in the screen of natural products [1]: stimulate type II collagen

Molecule: CC(=O)CCCCn1c(=O)c2c(ncn2C)n(C)c1=O [Pentoxifylline, reference compound]
stimulation of type II collagen production in the screen of natural products [1]: stimulate type II collagen

Molecule: CC(C)CC(=O)Nc1cncc(-c2ccc3[nH]nc(-c4nc5cncc(-c6cccc(F)c6)c5[nH]4)c3c2)c1 [SM04690, reference compound]
in vivo scaled amount [4]: 0.3 μg/rat knee

stimulation of type II collagen production in the screen of natural products [1]: stimulate type II collagen
Molecule: CC[C@]1(O)C[C@H]2CN(CCc3c([nH]c4ccccc34)[C@@](C(=O)OC)(c3cc4c(cc3OC)N(C=O)[C@H]3[C@@](O)(C(=O)OC)[C@H](OC(C)=O)[C@]5(CC)C=CCN6CC[C@]43[C@@H]65)C2)C1 [Vincristine sulfate, reference compound]

Molecule: O=C(O)CCCC[C@@H]1SC[C@@H]2NC(=O)N[C@@H]21 [Vitamin B7, Biotin]
luminescence [2]: ~40,000 RLU
luminescence with a single vitamin or mineral vs basal media alone [2]: higher luminescence

Molecule: [Cr] [chromium, Chromium]
luminescence with a single vitamin or mineral vs basal media alone [2]: higher luminescence

Molecule: [Co] [cobalt, Cobalt]
luminescence with a single vitamin or mineral vs basal media alone [2]: higher luminescence

luminescence with a single vitamin or mineral vs basal media alone [2]: higher luminescence
Molecule: N[C@@H](Cc1cc(I)c(Oc2cc(I)c(O)c(I)c2)c(I)c1)C(=O)O [thyroxine, Thyroxine]

Molecule: Promoline [Drug 84]
luminescence over 22 days vs untreated control [1, 5]: increased luminescence

luminescence with a single vitamin or mineral vs basal media alone [2]: detrimental to chondrogenesis
Molecule: Vitamin A

B1: FGF18: growth factor cited for dose scaling (protein, UniProt O76093 28-207, looked up)
Fibroblast growth factor 18: EENVDFRIHVENQTRARDDVSRKQLRLYQLYSRTSGKHIQVLGRRISARGEDGDKYAQLLVETDTFGSQVRIKGKETEFYLCMNRKGKLVGKPDGTSKECVFIEKVLENNYTALMSAKYSGWYVGFTKKGRPRKGPKTRENQQDVHFMKRYPKGQPELQKPFKYTTVTKRSRRIRPTHPA
in vivo rat knee efficacy [4]: 3-5 μg/knee
